The numbers were not newly measured in US20060035317A1, “Effect of treatment with 4,5-dihydroxy-2-cyclopenten-1-one (dhcp) on gene expression and quorum-sensing in bacteria” (priority 2002, published 2006), which cites them from elsewhere.

Structures are written as SMILES. Where two headings read alike, the source gives them in different places.

This series relates to E. coli (gene expression). To be noted: Wang et al., 2001, cited from earlier work.

As to `c1ccc2[nH]ccc2c1` [indole], the “Induction of gene by indole” value reads like this: (gene cysK) “induces”; (gene gabT) “not”.
